Test results published in patent US6608086B2, “Dihydropyridines and new uses thereof” (Synaptic Pharmaceutical Corporation, priority 1993, dated 2003).
Like-named read-outs stand apart in the source and are kept apart here.

Assays:
[1] = target: T1, α1A Human Adrenergic Receptor (Homo sapiens, UniProt P25100); test: Radioligand binding, [3H]prazosin, cloned human α1A adrenergic receptor
T1 construct: The entire coding region of α1A (1719 bp); expressed in transfected cells
T1 sequence (P25100 1-572): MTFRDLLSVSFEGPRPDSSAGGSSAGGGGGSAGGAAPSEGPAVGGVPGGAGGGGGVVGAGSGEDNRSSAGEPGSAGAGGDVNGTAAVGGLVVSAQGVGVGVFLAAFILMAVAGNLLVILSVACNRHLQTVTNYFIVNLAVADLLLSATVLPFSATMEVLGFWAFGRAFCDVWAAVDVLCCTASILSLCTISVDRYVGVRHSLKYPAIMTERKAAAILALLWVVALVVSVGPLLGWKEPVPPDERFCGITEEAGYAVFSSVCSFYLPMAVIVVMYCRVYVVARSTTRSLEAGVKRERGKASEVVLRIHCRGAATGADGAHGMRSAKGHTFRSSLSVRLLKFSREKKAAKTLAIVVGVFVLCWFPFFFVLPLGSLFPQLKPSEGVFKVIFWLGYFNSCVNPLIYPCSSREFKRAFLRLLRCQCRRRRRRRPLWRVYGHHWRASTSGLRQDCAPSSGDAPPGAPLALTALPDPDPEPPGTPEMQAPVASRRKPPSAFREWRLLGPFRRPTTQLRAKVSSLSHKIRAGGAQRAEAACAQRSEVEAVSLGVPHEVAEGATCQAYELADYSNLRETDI
How it was run: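 Membranes from LM(tk−) cells transfected with cloned human α1A receptor, prepared in 50 mM Tris-HCl, 1 mM MgCl2, 0.1% ascorbic acid pH 7.5, were incubated with 0.5 nM [3H]prazosin at 37° C for 20 min. Nonspecific binding was defined with 10 μM phentolamine; bound ligand was separated by GF/B filtration.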

[2] = target: T2, α1C Human Adrenergic Receptor (Homo sapiens, UniProt P35348); test: Radioligand binding, [3H]prazosin, cloned human α1C adrenergic receptor
T2 construct: The entire coding region of α1C (1401 bp); expressed in transfected cells
T2 sequence (P35348 1-466): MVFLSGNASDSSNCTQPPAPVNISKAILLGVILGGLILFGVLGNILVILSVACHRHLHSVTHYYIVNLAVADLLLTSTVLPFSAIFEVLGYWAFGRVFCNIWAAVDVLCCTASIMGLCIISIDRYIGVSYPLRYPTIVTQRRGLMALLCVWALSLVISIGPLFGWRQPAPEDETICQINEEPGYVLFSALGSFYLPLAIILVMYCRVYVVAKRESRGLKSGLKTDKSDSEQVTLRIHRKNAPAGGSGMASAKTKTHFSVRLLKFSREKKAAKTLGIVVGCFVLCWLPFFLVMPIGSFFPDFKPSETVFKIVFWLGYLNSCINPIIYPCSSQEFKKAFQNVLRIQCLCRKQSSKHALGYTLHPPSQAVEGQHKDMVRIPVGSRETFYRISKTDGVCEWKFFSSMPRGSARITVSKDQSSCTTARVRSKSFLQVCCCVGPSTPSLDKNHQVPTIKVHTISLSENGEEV
How it was run: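 LM(tk−) membranes (stable human α1C); [3H]prazosin 0.5 nM; 37° C., 20 min; Tris-HCl 50 mM/MgCl2 1 mM/ascorbate 0.1%, pH 7.5; NSB 10 μM phentolamine; GF/B filtration.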

[3] = target: T3, α1B Human Adrenergic Receptor (Homo sapiens, UniProt P35368); test: Radioligand binding, [3H]prazosin, cloned human α1B adrenergic receptor
T3 construct: The entire coding region of α1B (1563 bp); expressed in transfected cells
T3 sequence (P35368 1-520): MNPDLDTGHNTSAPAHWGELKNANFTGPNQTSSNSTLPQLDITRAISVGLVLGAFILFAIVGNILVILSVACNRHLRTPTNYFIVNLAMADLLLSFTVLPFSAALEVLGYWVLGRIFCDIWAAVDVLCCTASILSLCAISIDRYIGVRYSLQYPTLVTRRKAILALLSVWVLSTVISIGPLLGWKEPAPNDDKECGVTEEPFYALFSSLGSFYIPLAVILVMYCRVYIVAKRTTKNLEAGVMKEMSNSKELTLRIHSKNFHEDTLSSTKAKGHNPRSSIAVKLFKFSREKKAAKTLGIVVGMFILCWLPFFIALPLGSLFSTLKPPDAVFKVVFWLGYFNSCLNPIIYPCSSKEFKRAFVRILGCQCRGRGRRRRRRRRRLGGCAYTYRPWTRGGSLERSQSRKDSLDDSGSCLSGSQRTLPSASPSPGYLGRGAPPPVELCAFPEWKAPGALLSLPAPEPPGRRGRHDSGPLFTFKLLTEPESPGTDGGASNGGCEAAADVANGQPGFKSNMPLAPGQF
How it was run: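 Membranes from stably transfected LM(tk−) cells, resuspended in 50 mM Tris-HCl, 1 mM MgCl2, 0.1% ascorbic acid, pH 7.5, were incubated with 0.5 nM [3H]prazosin for 20 min at 37° C. Nonspecific binding defined with 10 μM phentolamine; bound ligand separated by GF/B filtration.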

L-type calcium channel = target: T4, L-type calcium channel (Rattus norvegicus, UniProt P22002); test: Competition binding of [3H]nitrendipine to membrane fragments of rat cardiac muscle
T4 construct: membrane fragments of rat cardiac muscle; from tissue; host or cells: rat cardiac muscle membranes
T4 sequence (P22002 whole entry, other chains not shown, the tested form may be a part): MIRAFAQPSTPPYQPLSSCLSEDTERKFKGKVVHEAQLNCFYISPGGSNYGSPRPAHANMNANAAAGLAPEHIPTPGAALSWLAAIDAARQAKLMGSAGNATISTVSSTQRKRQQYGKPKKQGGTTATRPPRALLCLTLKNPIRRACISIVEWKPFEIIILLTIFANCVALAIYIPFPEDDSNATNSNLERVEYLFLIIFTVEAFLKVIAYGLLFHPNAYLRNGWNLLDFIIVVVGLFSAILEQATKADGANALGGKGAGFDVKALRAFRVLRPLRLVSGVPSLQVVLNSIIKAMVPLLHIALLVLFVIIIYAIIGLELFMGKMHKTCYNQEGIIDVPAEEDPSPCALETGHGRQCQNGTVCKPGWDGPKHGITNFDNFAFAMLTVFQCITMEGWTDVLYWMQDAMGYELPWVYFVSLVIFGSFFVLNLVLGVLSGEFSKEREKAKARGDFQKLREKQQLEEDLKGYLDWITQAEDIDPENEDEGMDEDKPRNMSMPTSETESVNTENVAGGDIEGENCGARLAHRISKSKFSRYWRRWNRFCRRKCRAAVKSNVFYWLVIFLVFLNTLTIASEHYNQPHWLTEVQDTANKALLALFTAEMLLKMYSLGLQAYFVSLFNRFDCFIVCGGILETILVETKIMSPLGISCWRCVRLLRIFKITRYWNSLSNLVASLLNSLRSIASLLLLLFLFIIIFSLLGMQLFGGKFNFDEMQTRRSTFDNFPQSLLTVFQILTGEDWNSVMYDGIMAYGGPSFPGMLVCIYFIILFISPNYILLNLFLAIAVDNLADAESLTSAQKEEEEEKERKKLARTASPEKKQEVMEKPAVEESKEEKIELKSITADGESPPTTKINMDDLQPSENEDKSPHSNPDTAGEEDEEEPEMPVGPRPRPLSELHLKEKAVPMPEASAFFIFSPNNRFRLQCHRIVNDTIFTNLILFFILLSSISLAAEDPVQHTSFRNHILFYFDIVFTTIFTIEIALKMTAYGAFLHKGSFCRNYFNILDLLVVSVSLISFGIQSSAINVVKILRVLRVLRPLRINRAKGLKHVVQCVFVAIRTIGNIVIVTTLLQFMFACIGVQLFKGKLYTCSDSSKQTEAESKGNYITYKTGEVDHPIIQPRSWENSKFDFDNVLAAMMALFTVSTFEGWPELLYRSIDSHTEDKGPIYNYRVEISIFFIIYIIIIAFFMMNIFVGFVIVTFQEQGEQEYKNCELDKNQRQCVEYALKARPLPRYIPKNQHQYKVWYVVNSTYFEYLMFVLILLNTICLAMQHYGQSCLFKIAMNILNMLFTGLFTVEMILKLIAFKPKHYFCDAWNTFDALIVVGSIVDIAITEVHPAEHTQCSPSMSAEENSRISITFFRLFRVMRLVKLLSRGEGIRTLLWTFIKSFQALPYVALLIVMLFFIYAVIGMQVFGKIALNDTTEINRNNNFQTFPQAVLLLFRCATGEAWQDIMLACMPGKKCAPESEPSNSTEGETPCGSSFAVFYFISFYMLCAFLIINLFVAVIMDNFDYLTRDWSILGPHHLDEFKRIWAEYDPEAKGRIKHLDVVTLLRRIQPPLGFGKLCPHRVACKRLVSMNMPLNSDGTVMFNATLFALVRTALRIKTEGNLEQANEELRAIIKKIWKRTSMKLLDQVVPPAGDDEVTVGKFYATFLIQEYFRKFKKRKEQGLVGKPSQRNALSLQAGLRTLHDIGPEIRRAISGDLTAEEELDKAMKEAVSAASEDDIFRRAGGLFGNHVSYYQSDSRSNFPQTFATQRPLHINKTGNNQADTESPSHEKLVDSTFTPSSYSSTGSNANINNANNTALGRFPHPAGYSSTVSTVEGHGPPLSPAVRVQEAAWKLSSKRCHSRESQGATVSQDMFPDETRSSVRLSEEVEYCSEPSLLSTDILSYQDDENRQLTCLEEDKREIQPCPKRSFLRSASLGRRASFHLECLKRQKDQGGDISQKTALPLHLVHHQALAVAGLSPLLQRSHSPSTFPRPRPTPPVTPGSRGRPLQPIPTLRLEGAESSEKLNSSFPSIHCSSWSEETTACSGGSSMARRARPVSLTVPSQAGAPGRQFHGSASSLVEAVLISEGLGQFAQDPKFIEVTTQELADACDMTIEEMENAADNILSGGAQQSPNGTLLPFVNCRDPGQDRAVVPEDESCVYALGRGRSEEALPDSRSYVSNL
T4 sequence (P54290 25-944 partner limits assumed, other chains not shown): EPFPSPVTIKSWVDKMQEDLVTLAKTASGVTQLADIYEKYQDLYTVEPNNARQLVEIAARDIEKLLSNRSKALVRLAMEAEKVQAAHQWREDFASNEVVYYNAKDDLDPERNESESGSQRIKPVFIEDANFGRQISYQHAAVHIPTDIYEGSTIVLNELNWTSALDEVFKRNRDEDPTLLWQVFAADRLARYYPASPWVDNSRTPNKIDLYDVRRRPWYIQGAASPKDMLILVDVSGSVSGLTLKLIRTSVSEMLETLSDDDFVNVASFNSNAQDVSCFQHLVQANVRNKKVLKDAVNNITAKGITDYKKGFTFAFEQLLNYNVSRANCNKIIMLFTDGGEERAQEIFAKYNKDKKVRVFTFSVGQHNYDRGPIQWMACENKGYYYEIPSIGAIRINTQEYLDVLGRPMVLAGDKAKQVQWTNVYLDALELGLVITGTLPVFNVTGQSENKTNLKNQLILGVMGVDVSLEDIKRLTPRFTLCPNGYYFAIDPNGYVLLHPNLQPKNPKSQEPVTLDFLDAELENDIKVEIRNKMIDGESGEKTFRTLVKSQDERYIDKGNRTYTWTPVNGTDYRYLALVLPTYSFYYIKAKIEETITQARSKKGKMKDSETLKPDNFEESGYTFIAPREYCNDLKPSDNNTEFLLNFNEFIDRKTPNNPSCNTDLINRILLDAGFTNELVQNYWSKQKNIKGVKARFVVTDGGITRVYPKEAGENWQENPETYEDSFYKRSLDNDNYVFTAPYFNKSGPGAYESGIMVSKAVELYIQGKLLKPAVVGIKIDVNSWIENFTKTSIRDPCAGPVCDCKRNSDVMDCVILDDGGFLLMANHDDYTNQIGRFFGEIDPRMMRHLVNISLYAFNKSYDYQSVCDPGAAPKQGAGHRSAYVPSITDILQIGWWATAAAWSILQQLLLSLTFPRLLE
T4 sequence (P54290 945-1091 partner limits assumed, other chains not shown): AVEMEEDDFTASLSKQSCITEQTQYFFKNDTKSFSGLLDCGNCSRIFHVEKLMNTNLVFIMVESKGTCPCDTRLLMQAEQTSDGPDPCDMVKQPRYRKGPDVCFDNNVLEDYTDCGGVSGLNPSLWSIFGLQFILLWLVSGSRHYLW
Protocol: The protocols for these experiments are given below.
Determination of the Activity of al Antagonists at Calcium Channels
Briefly, the tissue was minced and homogenized in 50 mM Tris-HCl (pH 7.4) containing 0.1 mM phenylmethylsulfonyl fluoride. The homogenates were centrifuged at 1000 g for 15 minutes, the resulting supernatant was centrifuged at 45,000 g for 15 minutes. The 45,000 g pellet was suspended in buffer and centrifuged a second time. Aliquots of membrane protein were incubated for 30 minutes at 37° C. in the presence of [3H]nitrendipine (1 nM), and nonspecific binding was determined in the presence of 10 μM nifedipine. The bound radioligand was separated by filtration through GF/B filters using a cell harvester.

[4] = [3H]prazosin, cloned human receptor in LM(tk-) cell membranes, SEM and n in lines below, read-out: pKi alpha-1 1a (converted)
[5] = cloned human receptor in LM(tk-) cell membranes, SEM and n in lines below, read-out: pKi alpha-1 1c (converted)
[6] = cloned human receptor in LM(tk-) cell membranes, SEM and n in lines below, read-out: pKi alpha-1 1b (converted)
[7] = [3H]nitrendipine, rat cardiac muscle membranes, SEM and n in lines below, read-out: pKi Ca (converted)
[8] = pKi alpha-1 1a, [3H]prazosin, cloned human α1A receptor, LM(tk−) cell membranes
[9] = pKi alpha-1 1c, cloned human α1C receptor, LM(tk−) cell membranes
[10] = pKi alpha-1 1b, cloned human α1B receptor, LM(tk−) cell membranes
[11] = [3H]nitrendipine, rat cardiac muscle membrane fragments, L-type calcium channel, read-out: pKi Ca (converted)
[12] = PKi alpha-1 1a, [3H]prazosin, cloned human receptor, LM(tk-) cell membranes, mean
[13] = PKi alpha-1 1c, cloned human receptor, LM(tk-) cell membranes, mean
[14] = PKi alpha-1 1b, cloned human receptor, LM(tk-) cell membranes, mean
[15] = [3H]nitrendipine, rat cardiac muscle membranes, mean, read-out: PKi Ca (converted)

SMILES	melting point	Ki [1, 8] [µM]	Ki [2, 9] [µM]	Ki [3, 10] [µM]	Ki (L-type calcium channel; [11]) [µM]	further results
COC(=O)C1=C(C)NC(C)=C(C(=O)NCCCN2CCC(c3ccccc3)CC2)C1c1ccncc1 (centres unmarked) [Example 32, 1,4-Dihydro-3-methoxycarbonyl-2,6-dimethyl-5-(N-(3-(4-phenylpiperidin-1-yl)propyl)carboxamido)-4-(4-pyridyl)pyridine]	79 to 80 °C	–	–	–	–	Ki [1, 4]: 0.741 µM; Ki [2, 5]: 0.0132 µM; Ki [3, 6]: 0.302 µM; Ki (L-type calcium channel; [7]): 1.58 µM
COC(=O)C1=C(C)NC(C)=C(C(=O)OCCCN(C)C)C1c1ccc([N+](=O)[O-])cc1.Cl (centres unmarked) [Example 44, 1,4-Dihydro-5-methoxycarbonyl-2,6-dimethyl-3-{3-[(N,N-dimethyl)amino]propoxy}carbonyl-4-(4-nitrophenyl) pyridine hydrochloride]	120 to 121 °C	–	–	–	–	Ki [1, 4]: 5.89 µM; Ki [2, 5]: 1.7 µM; Ki [3, 6]: 8.32 µM; Ki (L-type calcium channel; [7]): 16.6 µM
CCNC(=O)C1=C(CC)NC(CC)=C(C(=O)NCCCN2CCC(c3ccccc3)(c3ccccc3)CC2)C1c1ccc([N+](=O)[O-])cc1 (centres unmarked) [Example 129, 2,6-Diethyl-5-(N-ethyl)carboxamido-1,4-dihydro-4-(4-nitrophenyl)-3-{N-[3-(4,4-diphenylpiperidin-1-yl)propyl]}carboxamidopyridine]	101 to 104 °C	0.676	0.00372	0.513	100	–
CCNC(=O)C1=C(C)NC(C)=C(C(=O)NCCCN2CCC(c3ccccc3)(c3ccccc3)CC2)C1c1ccc([N+](=O)[O-])cc1 (centres unmarked) [Example 131, 5-(N-Ethyl)carboxamido-1,4-dihydro-2,6-dimethyl-4-(4-nitrophenyl)-3-{N-[3-(4,4-diphenylpiperidin-1-yl)propyl]}carboxamidopyridine]	104 to 108 °C	1.48	0.00457	0.851	100	–
CCC1=C(C(=O)NCCCN2CCC(c3ccccc3)(c3ccccc3)CC2)C(c2ccc([N+](=O)[O-])cc2)C(C(=O)NC(C)C)=C(CC)N1 (centres unmarked) [Example 132]	201 °C (dec.)	0.776	0.0575	0.389	79.4	–
CCCC1=C(C(=O)NCC)C(c2ccc([N+](=O)[O-])cc2)C(C(=O)NCCCN2CCC(c3ccccc3)(c3ccccc3)CC2)=C(CCC)N1 (centres unmarked) [Example 159, 5-(N-Ethyl)carboxamido-1,4-dihydro-4-(4-nitrophenyl)-3-{N-[3-(4,4-diphenylpiperidin-1-yl)propyl]}carboxamido-2,6-dipropylpyridine]	123 to 128 °C	–	–	–	–	Ki ([1]; pKi alpha-1 1a): 0.389 µM; Ki ([2]; cloned human α1C receptor, LM(tk−) cell membranes, read-out: pKi alpha-1 1c (converted)): 0.00501 µM; Ki ([3]; cloned human α1B receptor, LM(tk−) cell membranes, read-out: pKi alpha-1 1b (converted)): 0.178 µM; Ki (L-type calcium channel; pKi Ca): 1.66 µM
CCCC1=C(C(=O)O)C(c2ccc([N+](=O)[O-])cc2)C(C(=O)NCCCN2CCC(c3ccccc3)(c3ccccc3)CC2)=C(CCC)N1 (centres unmarked) [Example 161, 1,4-Dihydro-4-(4-nitrophenyl)-5-{N-[3-(4,4-diphenylpiperidin-1-yl)propyl]}carboxamido-2,6-dipropylpyridine-3-carboxylic acid]	126 to 130 °C	1.32	0.0389	0.407	1000	–
COc1ccc(C2(c3ccccc3)CCN(CCCNC(=O)C3=C(COCCN=[N+]=[N-])NC(C)=C(C(N)=O)C3c3ccc([N+](=O)[O-])cc3)CC2)cc1 (centres unmarked) [Example 184, 2-[(2-Azidoethoxy)methyl]-5-carboxamido-1,4-dihydro-3-{N-[3-(4-(4-methoxyphenyl)-4-phenylpiperidin-1-yl)propyl]}carboxamido-6-methyl-4-(4-nitrophenyl)pyridine]	105 to 107 °C	–	–	–	–	Ki [1, 12]: 0.741 µM; Ki [2, 13]: 0.00955 µM; Ki [3, 14]: 0.174 µM; Ki (L-type calcium channel; [15]): 12.3 µM
CNC(=O)C1=C(C)NC(C)=C(C(=O)NCCCN2CCC(C(=O)OC)(c3ccccc3)CC2)C1c1ccc([N+](=O)[O-])cc1 (centres unmarked) [Example 187, 1,4-Dihydro-2,6-dimethyl-3-{N-[3-(4-methoxycarbonyl-4-phenylpiperidin-1-yl)propyl]}carboxamido-5-(N-methyl) carboxamido-4-(4nitrophenyl)pyridine]	122 to 123 °C	–	–	–	–	Ki (L-type calcium channel; PKi Ca, [3H]nitrendipine, rat cardiac muscle membranes, mean): 513 µM
CCC1=C(C(=O)O)C(c2ccc([N+](=O)[O-])cc2)C(C(=O)NCCCN2CCC(c3ccccc3)CC2)=C(COC)N1 (centres unmarked) [Example 223, 6-Ethyl-1,4-dihydro-2-methyloxymethyl-4-(4-nitro)phenyl-3-(N-(3-(4-phenylpiperidin-1-yl)propyl))carboxamidopyridine-5-carboxylic Acid]	–	–	–	–	–	Ki ([1]; [3H]prazosin, cloned human receptor, LM(tk-) cell membranes, mean, read-out: PKi alpha-1 1a (converted)): 0.891 µM; Ki ([2]; cloned human receptor, LM(tk-) cell membranes, mean, read-out: PKi alpha-1 1c (converted)): 0.0347 µM; Ki ([3]; cloned human receptor, LM(tk-) cell membranes, mean, read-out: PKi alpha-1 1b (converted)): 0.174 µM; Ki (L-type calcium channel; [15]): 275 µM
CCC1=C(C(=O)NC)C(c2ccc([N+](=O)[O-])cc2)C(C(=O)NCCCN2CCC(c3ccccc3)(c3ccccc3)CC2)=C(COCCN=[N+]=[N-])N1 (centres unmarked) [Example 224, 2-((2-Azidoethyl)oxy)methyl-6-ethyl-1,4-dihydro-5-N-methylcarboxamido-4-(4-nitro)phenyl-3-(N-(3-(4,4-diphenylpiperidin-1-yl)propyl))carboxamidopyridine]	–	–	–	–	–	Ki [1, 12]: 0.661 µM; Ki [2, 13]: 0.00692 µM; Ki [3, 14]: 0.263 µM; Ki (L-type calcium channel; [15]): 15.1 µM
